In patent US20250340574A1, “MODULATORS OF CYSTIC FIBROSIS TRANSMEMBRANE CONDUCTANCE REGULATOR” (Vertex Pharmaceuticals Incorporated, priority 2022, published 2025):
Read-outs that look alike come from different tables or passages of the source.

Experiments:
[1] = target: T1, CFTR (F508del/MF-HBE cells) (Homo sapiens, UniProt P13569, DEL508-508); assay: Ussing chamber assay of CFTR-mediated short-circuit currents, Assay A (0.1 μM to 25 μM, 6 concentrations); type: cell-based; settings: with 33 nM potentiator and 18 μM Tezacaftor, 20% human serum; for Emax: 18-24 hours, read-out: A Max activity (%)
T1 construct: human bronchial epithelial (HBE) cells derived from CF subjects heterozygous for F508del and a minimal function CFTR mutation (F508del/MF-HBE); endogenous in cells; host or cells: Primary human bronchial epithelial cells from CF subjects (F508del/MF genotype), differentiated at an air-liquid interface
Outline: (§1)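 F508del/MF-HBE cells were preincubated 18–24 h at 37 °C in 20% human serum with corrector plus 18 μM tezacaftor and either 33 nM (concentration series) or 44 nM (1 μM single point) of the aminotrifluoromethyl triazatricyclic potentiator. Ussing chamber, Vhold=0 mV, 37 °C; forskolin 20 μM stimulation, CFTR ISC taken as inhibitor-cocktail-sensitive current.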

[2] = target: T1, CFTR (F508del/MF-HBE cells); assay: Ussing chamber assay of CFTR-mediated short-circuit currents, Assay B (0.00001 μM to 25 μM, 12 concentrations); type: cell-based; settings: with 33 nM potentiator and 18 μM Tezacaftor, 20% human serum; for Emax: 18-24 hours, read-out: B Max activity (%)
Procedure: Ussing chamber experiments were performed using human bronchial epithelial (HBE) cells derived from CF subjects heterozygous for F508del and a minimal function CFTR mutation (F508del/MF-HBE) and cultured as previously described (Neuberger T, Burton B, Clark H, Van Goor F Methods Mol Biol 2011:741:39-54). After four days the apical media was removed, and the cells were grown at an air liquid interface for >14 days prior to use.
To isolate the CFTR-mediated short-circuit (ISC) current, F508del/MF-HBE grown on Costar® Snapwell™ cell culture inserts were mounted in an Ussing chamber and the transepithelial ISC was measured under voltage-clamp recording conditions (Vhold=0 mV) at 37° C. The basolateral solution contained (in mM) 145 NaCl, 0.83 K2HPO4, 3.3 KH2PO4, 1.2 MgCl2, 1.2 CaCl2, 10 Glucose, 10 HEPES (pH adjusted to 7.4 with NaOH) and the apical solution contained (in mM) 145 NaGluconate, 1.2 MgCl2, 1.2 CaCl2, 10 glucose, 10 HEPES (pH adjusted to 7.4 with NaOH) and 30 μM amiloride to block the epithelial sodium channel. Forskolin (20 μM) was added to the apical surface to activate CFTR, followed by apical addition of a CFTR inhibitor cocktail consisting of BPO, GlyH-101, and CFTR inhibitor 172 (each at 20 μM final assay concentration) to specifically isolate CFTR currents. The CFTR-mediated ISC (μA/cm^2) for each condition was determined from the peak forskolin response to the steady-state current following inhibition.
The activity of the CFTR corrector compounds on the CFTR-mediated ISC was determined in Ussing chamber studies as described above. The F508del/MF-HBE cell cultures were either incubated with the corrector compounds at a range of concentrations in combination with 33 nM (6R,12R)-17-amino-12-methyl-6,15-bis(trifluoromethyl)-13,19-dioxa-3,4,18-triazatricyclo[12.3.1.12,5]nonadeca-1(18),2,4,14,16-pentaen-6-ol and 18 μM Tezacaftor or were incubated with the corrector compounds at a single fixed concentration of 1 μM in combination with 44 nM (6R,12R)-17-amino-12-methyl-6,15-bis(trifluoromethyl)-13,19-dioxa-3,4,18-triazatricyclo[12.3.1.12,5]nonadeca-1(18),2,4,14,16-pentaen-6-ol and 18 μM Tezacaftor for 18-24 hours at 37° C. and in the presence of 20% human serum. The concentration of corrector compounds with 44 nM or 33 nM (6R,12R)-17-amino-12-methyl-6,15-bis(trifluoromethyl)-13,19-dioxa-3,4,18-triazatricyclo[12.3.1.12,5]nonadeca-1(18),2,4,14,16-pentaen-6-ol and 18 μM Tezacaftor during the 18-24 hours incubations was kept constant throughout the Ussing chamber measurement of the CFTR-mediated ISC to ensure compounds were present throughout the entire experiment. The efficacy and potency of the putative F508del correctors was compared to that of the known Vertex corrector, (14S)-8-[3-(2-{Dispiro[2.0.2.1]heptan-7-yl}ethoxy)-1H-pyrazol-1-yl]-12,12-dimethyl-2λ^6-thia-3,9,11,18,23-pentaazatetracyclo[17.3.1.111,14.05,10]tetracosa-1(22),5,7,9,19(23),20-hexaene-2,2,4-trione, in combination with 18 μM Tezacaftor and 1 μM Ivacaftor.
• Assay A: 0.1 μM to 25 μM, 6 concentrations • Assay B: 0.00001 μM to 25 μM, 12 concentrations • Assay C: 0.026 μM to 25 μM, 6 concentrations • Assay D: Activity at single concentration of 1 μM

[3] = amide bond, 13-membered ring, CDMT/NMM, DMF
[4] = target: T1, CFTR (F508del/MF-HBE cells); assay: Ussing chamber assay of CFTR-mediated short-circuit currents, Assay D (single concentration of 1 μM); type: cell-based; settings: with 44 nM potentiator and 18 μM Tezacaftor, 18-24 hours, 20% human serum
Outline: as §1

[5] = target: T1, CFTR (F508del/MF-HBE cells); assay: Ussing chamber assay of CFTR-mediated short-circuit currents, Assay C (0.026 μM to 25 μM, 6 concentrations); type: cell-based; settings: with 33 nM potentiator and 18 μM Tezacaftor, 20% human serum
Outline: as §1

T1 sequence (P13569 with tags, fused parts or gaps DEL508-508): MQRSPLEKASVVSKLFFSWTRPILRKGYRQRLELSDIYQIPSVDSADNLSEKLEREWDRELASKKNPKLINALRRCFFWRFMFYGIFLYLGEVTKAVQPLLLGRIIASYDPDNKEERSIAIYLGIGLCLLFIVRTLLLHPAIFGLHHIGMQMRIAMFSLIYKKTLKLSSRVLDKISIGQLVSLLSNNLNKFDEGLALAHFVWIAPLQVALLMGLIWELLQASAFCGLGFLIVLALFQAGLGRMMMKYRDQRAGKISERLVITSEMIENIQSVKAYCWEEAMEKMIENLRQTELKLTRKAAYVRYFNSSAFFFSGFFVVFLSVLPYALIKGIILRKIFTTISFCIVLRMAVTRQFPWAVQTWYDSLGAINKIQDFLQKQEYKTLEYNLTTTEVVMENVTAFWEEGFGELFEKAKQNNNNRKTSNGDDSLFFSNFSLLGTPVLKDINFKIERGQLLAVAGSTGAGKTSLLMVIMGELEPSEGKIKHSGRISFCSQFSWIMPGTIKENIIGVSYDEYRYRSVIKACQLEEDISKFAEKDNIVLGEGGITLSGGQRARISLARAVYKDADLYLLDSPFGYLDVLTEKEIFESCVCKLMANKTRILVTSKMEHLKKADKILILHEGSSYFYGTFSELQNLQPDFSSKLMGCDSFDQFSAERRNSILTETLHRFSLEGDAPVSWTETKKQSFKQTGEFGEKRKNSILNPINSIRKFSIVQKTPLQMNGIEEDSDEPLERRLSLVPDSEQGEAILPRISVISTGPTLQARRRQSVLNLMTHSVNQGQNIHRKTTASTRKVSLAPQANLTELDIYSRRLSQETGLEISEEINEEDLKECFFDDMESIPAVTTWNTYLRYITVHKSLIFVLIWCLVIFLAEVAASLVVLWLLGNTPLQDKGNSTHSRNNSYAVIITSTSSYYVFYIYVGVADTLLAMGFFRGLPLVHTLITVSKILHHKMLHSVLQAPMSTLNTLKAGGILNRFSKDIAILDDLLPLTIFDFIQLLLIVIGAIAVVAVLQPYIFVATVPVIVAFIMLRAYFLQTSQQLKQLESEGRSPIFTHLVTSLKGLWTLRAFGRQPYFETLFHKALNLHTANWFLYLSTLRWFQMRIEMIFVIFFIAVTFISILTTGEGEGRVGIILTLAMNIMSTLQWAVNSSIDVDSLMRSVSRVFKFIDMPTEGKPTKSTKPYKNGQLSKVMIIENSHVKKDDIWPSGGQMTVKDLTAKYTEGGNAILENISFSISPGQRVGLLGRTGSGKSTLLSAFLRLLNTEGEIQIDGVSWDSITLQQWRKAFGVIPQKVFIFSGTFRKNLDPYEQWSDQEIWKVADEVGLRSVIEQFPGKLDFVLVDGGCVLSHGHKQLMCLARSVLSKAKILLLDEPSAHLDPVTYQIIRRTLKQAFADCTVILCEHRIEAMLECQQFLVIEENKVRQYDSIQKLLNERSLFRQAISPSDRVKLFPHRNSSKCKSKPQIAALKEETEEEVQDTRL

Emax [1] | EC50 [1] | Emax [2] | EC50 [2] | Molecule | also measured
> 60% | < 1 µM | > 60% | 1 to 3 µM | Cc1cccc(C)c1-c1cc2nc(n1)NS(=O)(=O)c1cccc(c1)C(=O)N(Cc1cnc3oc(C4CC4)cc3n1)[C@H](CC1CC1)CO2 [Compound I-103] | –
> 60% | < 1 µM | > 60% | 3 to 30 µM | Cc1cccc(C)c1-c1cc2nc(n1)NS(=O)(=O)c1cccc(c1)C(=O)N(Cc1cnc3oc(C(C)C)cc3n1)[C@@H](CCC1(C)CC1)CO2 (stereo in doubt) [Compound I-70] | –
> 60% | < 1 µM | > 60% | 1 to 3 µM | Cc1cccc(C)c1-c1cc2nc(n1)NS(=O)(=O)c1cccc(c1)C(=O)N(Cc1cnc3oc(C4CC4)cc3n1)[C@H](CCC(C)(C)C)CO2 [Compound I-24] | –
> 60% | < 1 µM | > 60% | 1 to 3 µM | Cc1cccc(C)c1-c1cc2nc(n1)NS(=O)(=O)c1cccc(c1)C(=O)N(Cc1cnc3oc(C4(C)CC4)cc3n1)[C@H](CC13CC(C1)C3)CO2 [Compound I-97] | –
> 60% | < 1 µM | > 60% | 1 to 3 µM | Cc1cccc(CC(C)C)c1-c1nc2nc(c1C)OC[C@@H](CC(C)(C)C)N(Cc1cnc3oc(C(C)C)cc3n1)C(=O)c1cccc(c1)S(=O)(=O)N2 (atropisomer, axis not shown) [Compound I-65] | –
> 60% | < 1 µM | > 60% | 3 to 30 µM | Cc1cccc(C)c1-c1cc2nc(n1)NS(=O)(=O)c1cccc(c1)C(=O)N(Cc1cnc3oc(C(C)C)cc3n1)[C@H](CC1CC1)CO2 [Compound I-57] | –
> 60% | < 1 µM | > 60% | 3 to 30 µM | Cc1cccc(C)c1-c1cc2nc(n1)NS(=O)(=O)c1cccc(c1)C(=O)N(Cc1cnc3oc(C4CC4)cc3n1)C(CCC1(C)CC1)CO2 (single isomer, unassigned) [Compound I-71, 12-[(6-cyclopropylfuro[2,3-b]pyrazin-2-yl)methyl]-6-(2,6-dimethylphenyl)-11-[2-(1-methylcyclopropyl)ethyl]-2,2-dioxo-9-oxa-2λ^6-thia-3,5,12,19-tetrazatricyclo[12.3.1.14,8]nonadeca-1(18),4(19),5,7,14,16-hexaen-13-one] | –
> 60% | < 1 µM | > 60% | < 1 µM | Cc1cccc(CC(C)C)c1-c1nc2nc(c1C)OC[C@@H](CC(C)(C)C)N(Cc1cnc3cc(C(C)C)n(C)c3n1)C(=O)c1cccc(c1)S(=O)(=O)N2 (atropisomer, axis not shown) [Compound I-82] | –
– | – | > 60% | < 1 µM | Cc1cccc(C)c1-c1nc2nc(c1C)OC[C@@H](COC(C)C)N(Cc1cnc3cc(C(C)(C)C)n(C)c3n1)C(=O)c1cccc(c1)S(=O)(=O)N2 [Compound I-182] | D activity at 1 μM (%) [4]: +++ (+++ is >60%); Emax ([5]; 18-24 hours, read-out: C Max activity (%)): > 60%; EC50 [5]: < 1 µM
> 60% | < 1 µM | > 60% | 1 to 3 µM | Cc1cccc(C)c1-c1cc2nc(n1)NS(=O)(=O)c1cccc(c1)C(=O)N(Cc1cnc3oc(C(C)C)cc3n1)[C@H](CC1CCC1)CO2 [Compound I-56] | –

Second part, the molecule before the results:

Molecule | Emax [1] | EC50 [1] | Emax [2] | EC50 [2] | also measured
Cc1cccc(C)c1-c1cc2nc(n1)NS(=O)(=O)c1cccc(c1)C(=O)N(Cc1nc3cc(C(C)C)oc3cc1F)[C@H](CC13CC(C1)C3)CO2 [Compound I-89] | > 60% | < 1 µM | > 60% | 1 to 3 µM | –
(5P,11R)-6-[2-(cyclopentylmethyl)-6-methylphenyl]-11-(2,2-dimethylpropyl)-7-methyl-12-{[5-methyl-6-(propan-2-yl)-5H-pyrrolo[2,3-b]pyrazin-3-yl]methyl}-9-oxa-2λ^6-thia-3,5,12,19-tetraazatricyclo[12.3.1.1∧{4,8}]nonadeca-1(17),4(19),5,7,14(18),15-hexaene-2,2,13-trione | – | – | – | – | ring closure, yield after HPLC ([3]; 9.74 mM): 45%
Cc1cccc(C)c1-c1cc2nc(n1)NS(=O)(=O)c1cccc(c1)C(=O)N(Cc1cnc3oc(C(C)(C)COCc4ccccc4)cc3n1)[C@H](CC13CC(C1)C3)CO2 | – | – | – | – | ring closure, yield after HPLC ([3]; from Cc1cccc(C)c1-c1cc(OC[C@@H](CC23CC(C2)C3)NCc2cnc3oc(C(C)(C)COCc4ccccc4)cc3n2)nc(NS(=O)(=O)c2cccc(C(=O)O)c2)n1, 31.3 mM, 16.0 h): 69%
(6P,11S)-12-({6-tert-butyl-5-methyl-5H-pyrrolo[2,3-b]pyrazin-3-yl}methyl)-7-methyl-6-[2-methyl-6-(2-methylpropyl)phenyl]-11-[(trifluoromethoxy)methyl]-9-oxa-2λ^6-thia-3,5,12,19-tetraazatricyclo[12.3.1.1∧{4,8}]nonadeca-1(17),4,6,8(19),14(18),15-hexaene-2,2,13-trione | – | – | – | – | ring closure, yield after HPLC ([3]; 8.87 mM, 25.0 °C): 36%
Cc1cccc(C)c1-c1cc2nc(n1)NS(=O)(=O)c1cccc(c1)C(=O)N(Cc1cnc3cc(C(C)(C)C)n(C)c3n1)[C@H](C1CCCO1)CO2 (single isomer, unassigned; isomer a) | – | – | – | – | ring closure, yield after HPLC ([3]; from Cc1cccc(C)c1-c1cc(OC[C@H](NCc2cnc3cc(C(C)(C)C)n(C)c3n2)C2CCCO2)nc(NS(=O)(=O)c2cccc(C(=O)O)c2)n1, 13.2 mM, 25.0 °C, 20.0 h): 53%
(5P,11R)-11-({bicyclo[1.1.1]pentan-1-yl}methyl)-12-({6-tert-butyl-5-methyl-5H-pyrrolo[2,3-b]pyrazin-3-yl}methyl)-7-methyl-6-[2-methyl-6-(2-methylpropyl)phenyl]-9-oxa-2λ^6-thia-3,5,12,19-tetraazatricyclo[12.3.1.1∧{4,8}]nonadeca-1(17),4(19),5,7,14(18),15-hexaene-2,2,13-trione | – | – | – | – | ring closure, yield after HPLC ([3]; 22.6 mM, 25.0 °C): 76%
Cc1cccc(C)c1-c1cc2nc(n1)NS(=O)(=O)c1cccc(c1)C(=O)N(Cc1cnc3oc(C4CC4)cc3n1)[C@H](CC1CCC1)CO2 [Compound I-104, (11R)-11-(cyclobutylmethyl)-12-[(6-cyclopropylfuro[2,3-b]pyrazin-2-yl)methyl]-6-(2,6-dimethylphenyl)-2,2-dioxo-9-oxa-2λ^6-thia-3,5,12,19-tetrazatricyclo[12.3.1.14,8]nonadeca-1(18),4(19),5,7,14,16-hexaen-13-one] | > 60% | < 1 µM | > 60% | 3 to 30 µM | –
